Laboratory results from patent publication US7256201B2, “Selective estrogen receptor-β ligands” (AstraZeneca AB, priority 2000, dated 2007).

Key:
αER = target: T1, αER (Homo sapiens, UniProt P03372); assay: Cell-based assay for ER transcriptional activity (ERE β-gal reporter), αER-transfected 293 cells; conditions: 293 cells transfected with αER and ERE reporter; for ERE α-ER Max: maximal response, unit assumed; for EC50: read-out: ERE α-ER EC50
T1 construct: expressed in transfected cells; host or cells: 293 cells (Human Embryonic Kidney, ATCC CRL-1573)
T1 sequence (P03372 1-595): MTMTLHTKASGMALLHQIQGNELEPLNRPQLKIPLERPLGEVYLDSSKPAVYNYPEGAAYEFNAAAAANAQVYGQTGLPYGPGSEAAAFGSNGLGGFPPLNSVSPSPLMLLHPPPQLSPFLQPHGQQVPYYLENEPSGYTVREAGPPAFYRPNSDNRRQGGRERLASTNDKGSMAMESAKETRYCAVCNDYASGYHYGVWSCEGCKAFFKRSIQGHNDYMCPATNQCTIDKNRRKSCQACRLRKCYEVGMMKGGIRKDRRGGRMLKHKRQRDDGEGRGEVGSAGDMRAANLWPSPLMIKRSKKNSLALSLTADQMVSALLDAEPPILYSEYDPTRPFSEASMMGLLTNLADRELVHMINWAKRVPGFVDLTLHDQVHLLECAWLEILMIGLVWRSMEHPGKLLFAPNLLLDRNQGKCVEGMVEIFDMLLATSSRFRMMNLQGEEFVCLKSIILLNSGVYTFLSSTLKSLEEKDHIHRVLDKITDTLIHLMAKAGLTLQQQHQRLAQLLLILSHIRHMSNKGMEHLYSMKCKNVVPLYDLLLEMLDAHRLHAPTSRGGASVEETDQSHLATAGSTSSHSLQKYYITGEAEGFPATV
Description: (§1) ERs are ligand-dependent transcription factors that bind the promoter regions of genes at a consensus DNA sequence called the estrogen responsive element (ERE). The ER agonist or antagonist activity of a drug was determined by measuring the amount of reporter enzyme activity expressed from a plasmid under the control of an estrogen-responsive element when cells transiently transfected with ER and the reporter plasmid were exposed to drug. These experiments were conducted according to the following methods.
(§2) Estrogen Receptors alpha (αER, Gen Bank accession #M12674), and beta (βER, Gen Bank #X99101 were cloned into the expression vector pSG5 (Stratagene). A trimer of the vitellogenin-gene estrogen response element (vitERE) was synthesized as an oligonucleotide and attached to a beta-globin basal promoter in a construct named pERE3 gal. This response element and promoter were removed from pERE3 gal by digestion with the endonucleases SpeI (filled with Klenow fragment) and HindIII. This blunt/Hind III fragment was cloned into the β-galactosidase (β-gal) enhancer reporter plasmid (pBGALenh, Stratagene). αER and βER plasmids were purified using a the Endo Free Maxi Kit (Qiagen), and the DNA concentration and purity (A260/280 ratio) were determined spectrophotometrically (Pharmacia). Only DNA with A260/280 ratio of 1.8 and a concentration of >1 ug/uL was used for transfections.
(§3) All Transfections are performed in 293 cells (Human Embryonic Kidney cells ATCC #CRL-1573). Cells are grown in DMEM supplemented with 10% FBS, glutamine, sodium pyruvate and penicilin/streptomycin. Cells are grown to 70% confluency and split 1:4.
(§4) • 1. 293 cells are split the night before onto collagen I-coated 150 mm tissue-culture plates (Biocoat, Becton Dickinson #354551) at a density of 60-70% in DMEM Mediatech 17-205-CV) 10% charcoal-stripped FBS (biocell #6201-31). Approximately 1×10^7 cells/plate will yield 70% confluency. • 2. The next morning, 1 hour prior to transfection, the media is changed to fresh DMEM 10% FBS stripped and supplements. • 3. Transfections are performed using the Profection Kit (Promega #E1200). This kit is based on the calcium-phosphate-mediated transfection technique. Reagents are added in sterile polystyrene tubes in the following order:
(§5) Solution A • 15 μg αER or βER • 45 μg Reporter (pBGALenh or ERE3) • 1.5 mL Sterile Water • 186 μL CaCl2 • *Mix gently
(§6) Solution B • 1.5 mL 2× Hank's Buffered Salt Solution • 4. Using a vortex set on low, add solution A to solution B dropwise. The resulting solution should become milky in color. It is important to achieve thorough mixing. The solution is allowed to settle for 30 minutes, then vortexed before adding the solution to cells. • 5. Add the mixture to 150 mm plates dropwise. Mix well by rocking plates back and forth and side to side gently. After an hour, a very fine precipitate should be seen floating on and above cells under 20× magnification. If this precipitate is not observed, the transfection will not be effective. Incubate the cells for 12 hours. Receptor Stimulation: • 1. The day after transfection, cells are washed 2× with calcium- and magnesium-free Mg free PBS containing 1 mM EGTA (pH 7.6). Cells are trypsinized for 2 min with 3 mL of trypsin-EDTA. Trypsin is neutralized with DMEM 10% FCS. Cells are pelleted at 1000×g for 5 min. The cell pellet is then resuspended in 5 mL DMEM plus 2% phenol-red-free FCS supplemented with glutamine, pyruvate, and Penn/Strep. • 2. 50 μl of the resulting cell suspension is plated into each well of 96-well tissue culture dishes (Biocoat B&D #354407) using a multi-channel pipettor. The dishes have been previously loaded with 50 μL of DMSO-solubilized test compounds at twice the test concentration in DMEM. Data reported are either n=4 wells (single poke) and n=2 wells (9-point concentration-response curves). • 3. Cells are incubated overnight at 37° C. in the selected compounds. Reporter Assay: • 1. […]

human recombinant ERβ = target: T2, human recombinant ERβ (Homo sapiens, UniProt Q92731); assay: Fluorescence polarization estrogen receptor (ERFP) binding assay, ERβ; conditions: for Ki: competition with Fluormone ES2, IC50 converted to Ki by Kenakin formula, read-out: FP β-ER Ki; for FP Selectivity: ratio α-ER Ki / β-ER Ki
T2 construct: purchased PanVera (Madison, Wis.)
T2 sequence (Q92731 whole entry): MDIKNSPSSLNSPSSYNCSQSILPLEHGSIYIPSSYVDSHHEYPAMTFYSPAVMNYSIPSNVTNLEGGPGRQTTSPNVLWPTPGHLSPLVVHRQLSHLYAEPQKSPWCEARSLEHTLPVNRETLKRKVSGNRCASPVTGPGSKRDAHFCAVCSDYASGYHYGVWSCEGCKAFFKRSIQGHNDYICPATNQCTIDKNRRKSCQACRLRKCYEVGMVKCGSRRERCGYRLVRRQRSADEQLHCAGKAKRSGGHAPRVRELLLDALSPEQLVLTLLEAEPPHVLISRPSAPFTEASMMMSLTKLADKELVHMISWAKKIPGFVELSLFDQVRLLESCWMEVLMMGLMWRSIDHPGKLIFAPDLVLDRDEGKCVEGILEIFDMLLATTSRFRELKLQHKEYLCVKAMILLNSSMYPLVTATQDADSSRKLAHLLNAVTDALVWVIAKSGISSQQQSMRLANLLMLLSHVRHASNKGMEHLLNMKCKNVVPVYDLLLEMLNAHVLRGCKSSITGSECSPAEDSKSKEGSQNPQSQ
Description: (§7) A homogeneous mix-and-measure estrogen receptor (ER) binding assay which utilizes fluorescence polarization (FP) technology is used to identify compounds with affinity for the estrogen receptor. Purchased from PanVera (Madison, Wis.), assay reagents include purified human recombinant ERα, human recombinant ERβ, ES2 screening buffer (100 mM potassium phosphate, pH 7.4, 100 μg/mL bovine gamma globulin), and Fluormone™ ES2.
(§8) For competition binding experiments, dilutions of test compounds are prepared at 2× the final assay concentration in 0.2% DMSO in ES2 Screening buffer on TECAN Genosys, and 25 μL compound/well is dispensed into black Costar ½ volume 96-well plates. Dependent upon a lot specific Kd determination, 10-40 nM ERα or 10-40 nM ERβ and 1 nM Fluormone ES2 are then added to these plates in a final assay volume of 50 μL/well. Plates are gently shaken for at least 5 minutes to mix and incubated for at least 1 hr 45 minutes to achieve equilibrium. (Reaction mixtures are stable for up to 5 hours). After centrifugation to remove air bubbles, plates are read on an LJL Analyst or Acquest equipped with Criterion software at the following settings: Fluorescence Polarization Mode; Static Polarizer on Excitation Side; Dynamic Polarizer on Emission Side; Excitation λ=485×/−5 10 nm; Emission λ=520+/−12.5 nm.
(§9) Polarized fluorescence intensity values are collected and subsequently converted electronically to millipolarization (mp) values. Following data reduction and normalization with Excel and/or Prism software, % Ctrl values at the various test concentrations are used to obtain IC50 values via non-linear regression analysis of a four-parameter logistic equation.
(§10) Because ligand depletion is a consideration in this assay (˜40-60% input ES2 is bound in the assay), IC50 values are converted to Ki values through application of the Kenakin formula, as outlined in the reference below, rather than via the more routinely-used Cheng-Prusoff formula.

human recombinant ERα = target: T3, human recombinant ERα (Homo sapiens, UniProt P03372); assay: Fluorescence polarization estrogen receptor (ERFP) binding assay, ERα; conditions: competition with Fluormone ES2; IC50 converted to Ki by Kenakin formula; read-out: FP α-ER Ki
T3 construct: purchased PanVera (Madison, Wis.)
T3 sequence (P03372 1-595): T1 sequence (P03372 1-595)
Description: as §7, §8, §9, §10

βER = target: T4, βER (Homo sapiens, UniProt Q92731); assay: Cell-based assay for ER transcriptional activity (ERE β-gal reporter), βER-transfected 293 cells; conditions: for ERE β-ER Max / EC50: 293 cells transfected with βER and ERE reporter; for ERE β-ER Max: maximal response, unit assumed; for ERE Selectivity: ratio α-ER EC50 / β-ER EC50
T4 construct: expressed in transfected cells; host or cells: 293 cells (Human Embryonic Kidney, ATCC CRL-1573)
T4 sequence (Q92731 54-530 limits assumed): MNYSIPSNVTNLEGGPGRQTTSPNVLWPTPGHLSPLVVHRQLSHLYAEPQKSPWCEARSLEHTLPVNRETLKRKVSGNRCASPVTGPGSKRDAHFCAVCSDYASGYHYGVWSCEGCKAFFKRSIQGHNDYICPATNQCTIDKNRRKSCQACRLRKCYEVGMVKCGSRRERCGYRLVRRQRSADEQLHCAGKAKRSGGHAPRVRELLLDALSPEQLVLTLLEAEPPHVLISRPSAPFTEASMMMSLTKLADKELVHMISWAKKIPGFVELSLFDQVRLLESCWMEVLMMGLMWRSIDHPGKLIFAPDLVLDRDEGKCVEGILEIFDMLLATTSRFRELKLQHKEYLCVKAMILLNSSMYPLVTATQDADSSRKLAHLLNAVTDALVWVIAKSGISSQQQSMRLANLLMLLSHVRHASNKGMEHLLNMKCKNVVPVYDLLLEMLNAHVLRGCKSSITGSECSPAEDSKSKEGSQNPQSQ
Description: as §1, §2, §3, §4, §5, §6

| ERE α-ER Max (αER) [%] | Ki (human recombinant ERβ) [nM] | FP Selectivity (human recombinant ERβ) | Ki (human recombinant ERα) [nM] | ERE β-ER Max (βER) [%] | EC50 (αER) [nM] | EC50 (βER) [nM] | ERE Selectivity (βER) | Structure (SMILES) |
| --- | --- | --- | --- | --- | --- | --- | --- | --- |
| 113 | 8 | 2.2 | 16 | 71 |  |  |  | Cc1ccccc1C1c2ccc(O)cc2CCN1c1ccc(O)cc1 (stereo not shown) [Example 12, 2-(4-Hydroxyphenyl)-1-o-tolyl-1,2,3,4-tetrahydroisoquinolin-6-ol] |
| 89 | 32 | 1.8 | 55 | 69 |  |  |  | Oc1ccc2c(c1)CCN(c1ccc(Cl)cc1Cl)C2 [Example 13, 2-(2,4-Dichloro-phenyl)-1,2,3,4-tetrahydro-isoquinolin-6-ol] |
| 42 | 45 | 6.8 | 307 | 44 | 1000 | 143 | 7.0 | CC1c2ccc(O)cc2CCN1c1ccc(O)cc1 (stereo not shown) [Example 14, 2-(4-Hydroxy-phenyl)-1-methyl-1,2,3,4-tetrahydro-isoquinolin-6-ol] |
| 37 | 18 | 3.3 | 59 | 51 | 1000 | 23 | 43 | CCC1c2ccc(O)cc2CCN1c1ccc(O)cc1 (stereo not shown) [Example 15, 1-Ethyl-2-(4-hydroxy-phenyl)-1,2,3,4-tetrahydro-isoquinolin-6-ol] |
| 87 | 34 | 3.3 | 110 | 72 | 2.5 | 49 | 0.1 | CC1c2ccc(O)cc2CCN1c1cccc(O)c1 (stereo not shown) [Example 17, 2-(3-Hydroxy-phenyl)-1-methyl-1,2,3,4-tetrahydro-isoquinolin-6-ol] |
| 85 | 4.5 | 2.1 | 9 | 117 | 24.6 | 6.1 | 4.0 | Cc1ccc(O)cc1N1CCc2cc(O)ccc2C1C (stereo not shown) [Example 18, 2-(5-Hydroxy-2-methyl-phenyl)-1-methyl-1,2,3,4-tetrahydro-isoquinolin-6-ol] |
| 66 | 24.4 | 3.0 | 72 | 41 | 16.8 | 209 | 0.1 | CCC1c2ccc(O)cc2CCN1c1ccc(O)c(Cl)c1 (stereo not shown) [Example 19, 2-(3-Chloro-4-hydroxy-phenyl)-1-ethyl-1,2,3,4-tetrahydro-isoquinolin-6-ol] |
| 75 | 1.2 | 2.5 | 3 | 85 | 1.2 | 0.4 | 3.3 | Cc1ccc(N2CCc3cc(O)ccc3C2c2ccccc2)cc1O (stereo not shown) [Example 20, 2-(3-Hydroxy-4-methyl-phenyl)-1-phenyl-1,2,3,4-tetrahydro-isoquinolin-6-ol] |
| 77 | 3.8 | 6.0 | 22 | 106 | 0.8 | 0.7 | 1.1 | Cc1ccc(N2CCc3cc(O)ccc3C2c2ccoc2)cc1O (stereo not shown) [Example 21, 1-Furan-3-yl-2-(3-hydroxy-4-methyl-phenyl)-1,2,3,4-tetrahydro-isoquinolin-6-ol] |
| 60 | 55 | 3.5 | 190 | 77 | 192 | 161 | 1.2 | Oc1ccc(N2Cc3ccc(O)cc3C2)cc1 [Example 25, 5-Hydroxy-2-(4-hydroxyphenyl)isoindoline] |
| 102 | 160 | 1.3 | 200 | 85 | 73 | 79 | 0.9 | CCC1c2cc(O)ccc2CN1c1ccc(O)cc1 (stereo not shown) [Example 26, 1-Ethyl-6-hydroxy-2-(4-hydroxyphenyl)isoindoline] |
